# Literature values as cited in patent US20120003311A9, “METHOD FOR CONTROLLED RELEASE OF AN ACID-UNSTABLE PHYSIOLOGICALLY ACTIVE SUBSTANCE” (EISAI R&D MANAGEMENT CO., LTD., priority 2004, published 2012).
# Assays:
# [1] = descending colon vs jejunum
structure (smiles),measurement,setting,value
COc1ccnc(C[S+]([O-])c2nc3cc(OC(F)F)ccc3[nH]2)c1OC (centres unmarked) [pantoprazole],half-life at pH 7,,39 hours
COCCCOc1ccnc(C[S+]([O-])c2nc3ccccc3[nH]2)c1C (centres unmarked) [rabeprazole sodium],absorption rate in the descending colon as percentage of that of the jejunum,[1],≤ 20%
